Test results published in ChEMBL document CHEMBL1144154, “7-[1H-Indol-2-yl]-2,3-dihydro-isoindol-1-ones as dual Aurora-A/VEGF-R2 kinase inhibitors: design, synthesis, and biological activity” (Bioorg Med Chem Lett, 2008).
pIC50: −log10 of the molar value. Calls of active or inactive are those of the source. The calls are words filed in the database; no cut-off is given here.

How the values were obtained:
Aurora kinase A = molecular target: T1, Aurora kinase A (Homo sapiens, UniProt O14965); test: Inhibition of Aurora A
T1 sequence (O14965 whole entry): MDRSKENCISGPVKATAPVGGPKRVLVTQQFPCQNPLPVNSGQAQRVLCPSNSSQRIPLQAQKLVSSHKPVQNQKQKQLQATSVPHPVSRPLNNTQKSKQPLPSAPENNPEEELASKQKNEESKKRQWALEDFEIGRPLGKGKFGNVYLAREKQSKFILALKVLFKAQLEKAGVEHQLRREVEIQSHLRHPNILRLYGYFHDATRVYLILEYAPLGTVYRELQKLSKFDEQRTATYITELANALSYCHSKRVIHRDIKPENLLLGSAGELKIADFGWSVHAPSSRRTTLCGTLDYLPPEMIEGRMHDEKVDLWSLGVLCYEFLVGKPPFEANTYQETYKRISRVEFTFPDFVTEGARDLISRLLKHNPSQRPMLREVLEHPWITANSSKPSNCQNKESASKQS

[1] = molecular target: T2, Vascular endothelial growth factor receptor 2 (Homo sapiens, UniProt P35968); test: Inhibition of VEGFR2
[2] = molecular target: T3, Cyclin-dependent kinase 1 (Homo sapiens, UniProt P06493); test: Inhibition of CDK1
Target sequence in this assay (P06493 whole entry): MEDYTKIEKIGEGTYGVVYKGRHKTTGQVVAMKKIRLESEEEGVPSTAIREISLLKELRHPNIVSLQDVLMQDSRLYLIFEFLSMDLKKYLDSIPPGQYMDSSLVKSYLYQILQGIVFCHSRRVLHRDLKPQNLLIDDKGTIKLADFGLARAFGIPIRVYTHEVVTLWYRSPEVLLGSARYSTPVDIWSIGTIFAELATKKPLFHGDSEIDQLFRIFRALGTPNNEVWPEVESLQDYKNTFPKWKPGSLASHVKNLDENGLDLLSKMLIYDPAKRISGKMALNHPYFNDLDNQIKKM

[3] = molecular target: T2, Vascular endothelial growth factor receptor 2; test: Inhibition of VEGFR2 at 0.1 uM
[4] = molecular target: T4, Aurora kinase A (Homo sapiens) (UniProt O14965); test: Inhibition of Aurora A at 100 uM
T4 sequence (whole entry): T1 sequence (O14965 whole entry)

[5] = molecular target: T2, Vascular endothelial growth factor receptor 2; test: Inhibition of VEGFR2 at 100 uM
[6] = molecular target: T3, Cyclin-dependent kinase 1; test: Inhibition of CDK1 at 100 uM
Target sequence in this assay (P06493 whole entry, looked up): as the sequence (P06493 whole entry) above

HeLa = test: Induction of polyploidy in human HeLa cells assessed as increase in cells with >4N DNA content at 2.5 uM after 72 hrs by FACS analysis
[7] = Oral bioavailability in rat at 10 mg/kg; assay type: ADME, organism-based; conditions: in vivo
A-375 = test: Antitumor activity in human A375 cells […] nude mouse assessed as inhibition of tumor growth at 100 mg/kg, ip relative to control; assay type: functional; design: scale not given: the % may be the effect or the level left; conditions: route intraperitoneal
[8] = Cmax in rat at 10 mg/kg, po; assay type: ADME, organism-based; design: dose 10 mg/kg, route oral; conditions: in vivo
[9] = Drug concentration in nude mouse plasma at 10 mg/kg after 0.5 hrs; assay type: ADME, organism-based; design: dose 10 mg/kg
[10] = Drug concentration in nude mouse plasma at 10 mg/kg after 2 hrs; assay type: ADME, organism-based; design: dose 10 mg/kg
[11] = Drug concentration in nude mouse plasma at 10 mg/kg after 4 hrs; assay type: ADME, organism-based; design: dose 10 mg/kg
[12] = Drug concentration in nude mouse plasma at 10 mg/kg after 1 hr; assay type: ADME, organism-based; design: dose 10 mg/kg
[13] = Half life in rat at 10 mg/kg, po; assay type: ADME, organism-based; design: dose 10 mg/kg, route oral; conditions: in vivo

T2 sequence (P35968 whole entry): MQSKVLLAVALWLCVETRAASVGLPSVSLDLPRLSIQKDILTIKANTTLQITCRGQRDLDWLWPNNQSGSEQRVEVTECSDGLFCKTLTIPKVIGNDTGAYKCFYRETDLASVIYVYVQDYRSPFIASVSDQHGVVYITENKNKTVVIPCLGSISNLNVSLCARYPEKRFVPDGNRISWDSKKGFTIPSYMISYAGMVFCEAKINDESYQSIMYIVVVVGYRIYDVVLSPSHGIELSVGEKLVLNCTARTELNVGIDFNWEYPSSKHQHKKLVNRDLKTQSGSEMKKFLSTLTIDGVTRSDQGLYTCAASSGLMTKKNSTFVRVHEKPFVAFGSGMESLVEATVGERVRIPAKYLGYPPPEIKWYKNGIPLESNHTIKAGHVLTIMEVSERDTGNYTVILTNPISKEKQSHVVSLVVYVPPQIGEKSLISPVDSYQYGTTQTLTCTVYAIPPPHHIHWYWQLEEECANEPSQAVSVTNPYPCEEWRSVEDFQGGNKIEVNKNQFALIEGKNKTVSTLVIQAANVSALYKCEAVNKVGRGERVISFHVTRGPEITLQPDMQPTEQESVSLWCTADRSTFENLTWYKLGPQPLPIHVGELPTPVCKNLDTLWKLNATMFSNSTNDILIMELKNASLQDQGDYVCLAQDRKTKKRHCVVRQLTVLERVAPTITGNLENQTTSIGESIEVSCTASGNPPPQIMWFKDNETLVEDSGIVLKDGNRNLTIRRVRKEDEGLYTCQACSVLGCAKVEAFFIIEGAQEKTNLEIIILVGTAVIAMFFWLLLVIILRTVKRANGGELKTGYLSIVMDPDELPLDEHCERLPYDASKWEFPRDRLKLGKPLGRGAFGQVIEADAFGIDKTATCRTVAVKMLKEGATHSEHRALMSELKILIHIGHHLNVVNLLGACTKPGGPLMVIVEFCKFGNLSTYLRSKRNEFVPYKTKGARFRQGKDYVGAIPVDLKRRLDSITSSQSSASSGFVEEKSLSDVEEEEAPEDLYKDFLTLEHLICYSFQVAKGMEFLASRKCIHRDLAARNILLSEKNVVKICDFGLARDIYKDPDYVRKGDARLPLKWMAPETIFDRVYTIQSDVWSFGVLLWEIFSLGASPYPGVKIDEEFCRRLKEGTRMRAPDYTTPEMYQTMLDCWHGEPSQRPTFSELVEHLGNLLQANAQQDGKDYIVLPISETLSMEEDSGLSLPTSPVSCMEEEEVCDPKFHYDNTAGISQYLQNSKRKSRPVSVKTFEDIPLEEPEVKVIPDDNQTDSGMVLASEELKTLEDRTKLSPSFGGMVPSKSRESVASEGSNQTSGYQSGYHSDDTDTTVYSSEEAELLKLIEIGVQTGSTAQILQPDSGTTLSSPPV

Compound | pIC50 (Aurora kinase A) | pIC50 [1] | pIC50 [2] | other results
COC(=O)c1cccc2c1C(=O)NC2 | < 4.00 | < 4.00 |  | 
O=C1NCc2cccc(-c3cc4cc(OCCN5CCOCC5)ccc4[nH]3)c21 | 6.87 | 7.13 | < 4.00 | 
O=C1NCc2cccc(-c3cc4cc(OCc5ccccc5)ccc4[nH]3)c21 | 4.67 | 4.95 | < 4.00 | 
COc1ccc2[nH]c(-c3cccc4c3C(=O)NC4)nc2c1 | 6.69 | 6.85 |  | 
COc1ccc2[nH]c(-c3cccc4c3C(=O)NC4=O)cc2c1 |  |  |  | inhibition [3]: 35%; inhibition [4]: 30%
O=C1NCc2cccc(-c3c[nH]c4ccccc34)c21 |  |  |  | inhibition [5]: 50%; inhibition [4]: 60%
O=C1NCc2cccc(-c3cc4cc(OCCCN5CCCCC5)ccc4[nH]3)c21 | 6.75 | 7.19 | < 4.00 | 
NC(=O)c1cccc2c1C(=O)NC2 | 4.84 | < 4.00 |  | 
O=C1NCc2cccc(-c3cc4cc(O)ccc4[nH]3)c21 | 7.05 | 6.92 | 4.88 | 
CCN1CCN(CCCOc2ccc3[nH]c(-c4cccc5c4C(=O)NC5)cc3c2)CC1 | 7.36 | 7.85 | < 4.00 | 
O=C(O)c1cccc2c1C(=O)NC2 | < 4.00 | < 4.00 |  | 
COc1ccc(NC(=O)c2cccc3c2C(=O)NC3)cc1 |  | 5.23 |  | inhibition [4]: 45%
O=C1NCc2cccc(-c3cc4ccccc4[nH]3)c21 | 7.00 | 6.84 | < 4.00 | 
O=C1NCc2cccc(-c3ccc[nH]3)c21 | 6.47 | 5.96 |  | inhibition [6]: 63%
CN1Cc2cccc(-c3cccn3C(=O)OC(C)(C)C)c2C1=O | < 4.00 | < 4.00 | < 4.00 | 
CN1Cc2cccc(-c3ccc[nH]3)c2C1=O |  |  |  | inhibition [6]: 24%; inhibition [5]: < 10%; inhibition [4]: 37%
O=C1NCc2cccc(-c3cc4cc(OCCCO)ccc4[nH]3)c21 | 7.00 | 7.52 | < 4.00 | 
O=C1NCc2cccc(-c3cc4cc(OCCN5CCCCC5)ccc4[nH]3)c21 | 6.70 | 7.25 | < 4.00 | Activity (HeLa): Active; bioavailability [7]: 20%; Activity (A-375): 46%; Cmax [8]: 391 ng/mL; concentration at 0.5 h [9]: 154 ng/mL; concentration at 2 h [10]: 41 ng/mL; concentration at 4 h [11]: 12 ng/mL; concentration at 1 h [12]: 160 ng/mL; half-life [13]: 54 min
O=C1NCc2cccc(-c3cc4cc(OCCCN5CCC(O)CC5)ccc4[nH]3)c21 | 7.21 | 7.74 | < 4.00 | 
CC(C)(C)OC(=O)n1cccc1-c1cccc2c1C(=O)NC2 |  |  |  | inhibition [6]: < 10%; inhibition [5]: 46%; inhibition [4]: 25%
